Test results as given in patent US20200095241A1, “SUBSTITUTED 1,2,4-THIADIAZOLYLPYRROLONES AND 1,2,4-THIADIAZOLYLHYDANTOINS AND SALTS THEREOF AND USE THEREOF AS HERBICIDES” (Bayer CropScience Aktiengesellschaft, priority 2016, published 2020).

Tests used:
Setaria viridis [1] = test: Post-emergence herbicidal action; assay type: in vivo; settings: Setaria viridis, 504 h, 320 g/ha, about 3 weeks after treatment, read-out: Setaria viridis, herbicidal activity rated visually
Protocol: (§1) Seeds of monocotyledonous and dicotyledonous weeds and crop plants were placed in sandy loam in plastic or wood-fiber pots, covered with soil and cultivated in a greenhouse under controlled growth conditions. 2 to 3 weeks after sowing, the test plants were treated at the one-leaf stage. The compounds of the invention, formulated in the form of wettable powders (WP) or as emulsion concentrates (EC), were then sprayed onto the green parts of the plants as aqueous suspension or emulsion with addition of 0.5% additive at a water application rate of 600 l/ha (converted). After the test plants had been kept in the greenhouse under optimum growth conditions for about 3 weeks, the activity of the preparations was rated visually in comparison to untreated controls. For example, 100% activity=the plants have died, 0% activity=like control plants. Tables A1 to A12 below show the effects of selected compounds of the general formula (I) according to Tables I.1 to I.44 on various harmful plants and an application rate corresponding to 1280 g/ha or 320 g/ha, which were obtained by the experimental procedure mentioned above.

Stellaria media [2] = test: Post-emergence herbicidal action; assay type: in vivo; settings: about 3 weeks after treatment
Protocol: as §1

Viola tricolor [3] = test: Post-emergence herbicidal action; assay type: in vivo; settings: 504 h, 320 g/ha, about 3 weeks after treatment, read-out: Viola tricolor, herbicidal activity rated visually
Protocol: as §1

Matricaria inodora = test: Pre-emergence herbicidal action; assay type: in vivo; settings: 1280 g/ha, after about 3 weeks
From the text: (§2) Seeds of monocotyledonous and dicotyledonous weed plants and crop plants were placed in plastic or organic planting pots and covered with soil. The compounds of the invention, formulated in the form of wettable powders (WP) or as emulsion concentrates (EC), were then applied onto the surface of the covering soil as aqueous suspension or emulsion with addition of 0.5% additive at a water application rate of 600 l/ha (converted). After the treatment, the pots were placed in a greenhouse and kept under good growth conditions for the test plants. After about 3 weeks, the effect of the preparations was scored visually in comparison with untreated controls as percentages. For example, 100% activity=the plants have died, 0% activity=like control plants. Tables B1 to B15 below show the effects of selected compounds of the general formula (I) according to Tables I.1 to I.44 on various harmful plants and an application rate corresponding to 1280 g/ha or 320 g/ha, which were obtained by the experimental procedure mentioned above.

Stellaria media [4] = test: Pre-emergence herbicidal action; assay type: in vivo; settings: after about 3 weeks; for Stellaria media, herbicidal effect scored visually: 1280 g/ha
From the text: as §2

Viola tricolor [5] = test: Pre-emergence herbicidal action; assay type: in vivo; settings: Viola tricolor, 504 h, 320 g/ha, after about 3 weeks, read-out: Viola tricolor, herbicidal effect scored visually
From the text: as §2

photosystem II (PS II) = target: T1, photosystem II (PS II) (Spinacia oleracea, UniProt P69560); test: Measurement of the PS II activity in thylakoid membranes (DCPIP reduction); assay type: biochemical; settings: 100 μM test compound, spinach thylakoid membranes, DCPIP 120 μM, 10 min at 22° C. with exposure to light
T1 construct: the chloroplasts were osmotically ruptured and the thylakoid membranes were then obtained by centrifugation; from tissue; host or cells: fresh spinach leaves; thylakoid membranes isolated from chloroplasts
Protocol: Cooled fresh spinach leaves were comminuted and homogenized in 50 mM phosphate buffer, pH 6.8. 10 mM KCl, 0.34 M sucrose (sucrose buffer) (blender, 1 g of plant material/ml). The homogenate was subsequently filtered through 4 layers of Miracloth and the chloroplasts were isolated by centrifugation, i.e. 10 min of centrifugation at 4400×g (4° C.). The sediment was suspended in 25 ml of sucrose buffer and re-centrifuged for 10 min at 4400×g (4° C.). The sediment was then suspended in 40 ml of 50 mM phosphate buffer, pH 6.8, 10 mM KCl, without sucrose. In this step, the chloroplasts were osmotically ruptured and the thylakoid membranes were then obtained by centrifugation (10 min, 4400×g, 4° C.). The membrane sediment was finally suspended in 20 ml of 50 mM phosphate buffer, pH 6.8, 10 mM KCl. Following protein determination and activity determination, the membrane suspension was divided into aliquots and frozen in liquid nitrogen. The aliquots were stored at −80° C. Under these conditions, the photosystem II preparation was storage stable for at least three months. The activity determination of photosystem II (PS II) was then carried out using the following test principle:
The electron transfer from PS II to an artificial electron acceptor, 2,6-dichlorophenolindophenol (DCPIP), was measured with exposure to light. The concentration of the blue oxidized form of DCPIP was determined spectrophotometrically at wavelength λ=595 nm. […] The activity determination was carried out in microtiter plates (96 cavities) in a reaction volume of 200 μl. Here, 155 μl of dilute membrane suspension were initially charged in 50 mM of phosphate buffer, pH 6.8, 10 mM KCl. Depending on the activity of the PS II preparation, the dilution was adjusted such that the measurement of the decrease in absorption (λ=595 nm) was linear for at least 10 min. In each case 5 μl solution of the test compounds of a concentration of 100 μM in DMSO were added to the enzyme suspension; controls contained 5 μl DMSO; the final concentration of DMSO in the reaction batch was thus 2.5% (v/v); this concentration had no adverse effect on the enzymatic activity. On each microtiter plate, a known PS II inhibitor, for example metribuzin, was used as standard, which allowed the quality of the PS II test to be assessed. The reaction was started by addition of 40 μl DCPIP solution (600 μM in distilled water); the final concentration of DCPIP was 120 μM. Measurement of absorption was carried out over a period of 10 min at 22° C. and with exposure to light. Using metribuzin as comparative substance, the results for the efficacy of the compounds of the general formula (I) at 100 μM are stated in the table below using the following classification: ++++ (inhibition≥90%), +++ ([…]≥70%), ++ (70%>inhibition≥50%), + (50%>inhibition≥30%).

Abutilon theophrasti = test: Post-emergence herbicidal action; assay type: in vivo; settings: 320 g/ha, about 3 weeks after treatment
Protocol: as §1

Poa annua = test: Pre-emergence herbicidal action; assay type: in vivo; settings: 1280 g/ha, after about 3 weeks
From the text: as §2

Setaria viridis [6] = test: Pre-emergence herbicidal action; assay type: in vivo; settings: 1280 g/ha, after about 3 weeks
From the text: as §2

Amaranthus retroflexus = test: Post-emergence herbicidal action; assay type: in vivo; settings: 320 g/ha, about 3 weeks after treatment
Protocol: as §1

inhibition at 100 µM (stock) (photosystem II (PS II); read-out: Effect (inhibition of PS II activity)) [%]	Effect (inhibition of PS II activity) (photosystem II (PS II))	Structure (SMILES)	pest or weed control at 320 g/ha (Setaria viridis [1]) [%]	pest or weed control at 320 g/ha (Stellaria media [2]; Stellaria media, 504 h, 320 g/ha, read-out: Stellaria media, herbicidal activity rated visually) [%]	pest or weed control at 320 g/ha (Viola tricolor [3]) [%]	pest or weed control at 1280 g/ha (Matricaria inodora; Tripleurospermum inodorum, 504 h, read-out: Matricaria inodora, herbicidal effect scored visually) [%]	pest or weed control at 320 g/ha (Stellaria media [4]; Stellaria media, 504 h, 320 g/ha, read-out: Stellaria media, herbicidal effect scored visually) [%]	pest or weed control at 320 g/ha (Viola tricolor [5]) [%]	Abutilon theophrasti, herbicidal activity rated visually (Abutilon theophrasti) [%]	Matricaria inodora, herbicidal effect scored visually (Matricaria inodora) [%]	Poa annua, herbicidal effect scored visually (Poa annua) [%]	Stellaria media, herbicidal effect scored visually (Stellaria media [4]) [%]	Setaria viridis, herbicidal effect scored visually (Setaria viridis [6]) [%]	Amaranthus retroflexus, herbicidal activity rated visually (Amaranthus retroflexus) [%]	Stellaria media, herbicidal activity rated visually (Stellaria media [2]; 1280 g/ha) [%]
> 90		CCc1nsc(N2C(=O)C(C)=C(C)C2O)n1 (stereo not drawn) [I.2-3, 3,4-Dimethyl-5-hydroxy-1-(3-ethyl-1,2,4-thiadiazol-5-yl)-1,5-dihydro-2H-pyrrol-2-one]	80	80	100	100	90	100							
	+++ (90%≥inhibition≥70%)	CC1=C(C)C(O)N(c2nc(-c3ccccc3)ns2)C1=O (stereo not drawn) [I.2-21]							100	90	90	100			
	+++ (90%≥inhibition≥70%)	CC1=C(C)C(O)N(c2nc(C(C)(C)C)ns2)C1=O (stereo not drawn) [I.2-288]								90	90	100	100		
	+++ (90%≥inhibition≥70%)	CSc1nsc(N2C(=O)C(C)=C(C)C2O)n1 (stereo not drawn) [I.2-303]							100	100	90	100		100	100
